Results reported in a melting point compilation (Tetko et al.; mined from patent text by program, amines drawn as free bases though some values may be those of a salt).

Structure (SMILES) | melting point [°C]
CCCc1nn(C)c(C(N)=O)c1NC(=O)c1cc([N+](=O)[O-])cnc1OCC | 251 to 253
COc1ccc(CC(C)NCC(O)c2cccc(Br)c2)cc1 (stereo not given) | 79 to 83
COc1nc2cc(Cl)c(C)c(NS(C)(=O)=O)c2nc1OC | 228 to 229
Nc1nc(Cl)cc(OC(F)F)n1 | 118 to 119
CCCCCCCCCc1ccc(S(N)(=O)=O)cc1 | 94.5 to 95.2
COc1ccc(Nc2ccc(Nc3ncnc4cc(-c5ccccc5[N+](=O)[O-])sc34)cc2)cc1 | 228 to 237
CCCCCCCCCCCCCCCC(=O)n1nnnc1C(F)(F)F | 66 to 69
CNC(=S)N(C)c1cncc(C(F)(F)F)c1 | 86 to 90
CCOP(=O)(Cc1ccc2cc(CP(=O)(OCC)OCC)ccc2c1)OCC | 151 to 153
CCOc1nc(F)cc2nc(=S)[nH]n12 | 78 to 82
CC(C)(C)OC(=O)NC(C)(C)c1ccc(Br)nc1 | 100 to 103
C[Si](C)(C)N1C(=O)c2ccccc2S1(=O)=O | 90 to 92
COCC1OC(n2c(Cl)nc3cc(Cl)c(Cl)cc32)C(O)C1O (stereo not given) | 104 to 105
CC1NCCc2ccccc21 (stereo not given) | 60
CCCCCCCCCCCCCCCCCC(=O)N1CC2(CCCCC2)NC2(CCCCC2)C1 | 56 to 59
CNC(=O)C(C)(C)CCCCC1(CCCCC(C)(C)C(=O)NC)SCCCS1 | 104 to 106
O=[N+]([O-])c1c(F)cc(Cl)c2nc(Cl)sc12 | 110 to 112
Cc1ccc(C2=CCCNC2)nc1C | 102 to 104
CCCn1c(=O)c2c(NC)n[nH]c2n(Cc2cccnc2)c1=O | > 300
Nc1onc2c1CCC2 | 135
CC1(C)c2ccccc2C(C)(C)N1O | 128 to 130

Structure (SMILES) | melting point [°C]
CC1(C)C(C=C(Br)Br)C1C(=O)O (stereo not given) | 116 to 117
CC12C=CC(=O)C=C1CCC1C2C(O)CC2(C)C(C(=O)CO)=CCC12 (stereo not given) | 213 to 215
C#Cc1ccc(C2=C(C#N)C(=C(C#N)C#N)OC2(C)C)cc1 | 225
N#CC1(C#N)CN=C(O)C(c2cc(O)c(O)c([N+](=O)[O-])c2)=N1 | > 300
CC(C)(C)OC(=O)C1(N)C=CC(C(=O)O)C1 (stereo not given) | 126 to 127
Cc1cc(-n2cncn2)cc(C#N)c1N | 231 to 233
Cc1cc(C)cc(S(=O)(=O)c2nnc(C(F)(F)F)s2)c1 | 110
CCN1N=C(c2ccc([N+](=O)[O-])cc2)C(C)(C)C1=O | 118 to 120
CCNC(C)c1cc(S(N)(=O)=O)sc1S(=O)(=O)CC (stereo not given) | 135 to 138
COC(=O)Cn1c(C(=O)Nc2nc(-c3cc(OC)c(Cl)cc3OC)c(CCC3CCCCC3)s2)cc2cc(C)cc(C)c21 | 193 to 195
c1ccc(-c2cc3nccnc3[nH]2)nc1 | 234 to 235
CCC(CC)O[C@@H]1C=C(C(=O)OC)C[C@H](CC(O)CO)[C@H]1NC(C)=O (stereo not given in full) | 125 to 126
CN(C)C(=O)n1nc(C(C)(C)C)nc1SC(NS(C)(=O)=O)NS(C)(=O)=O | 83 to 85
CCCNC(=O)N(C)C1CCNCC1 | 84 to 86
COc1nc(N)c(Cl)cc1C(=O)CCC1CCN(CC(C)C)CC1 | 128
CC(C)C/C=C(\C[C@H](N)C(=O)O)C(=O)O | 190 to 199
OCCN1CCN(c2cc(Cl)nnc2Cl)CC1 | 139 to 141
CC1(C)CCOC1=Cn1cncn1 | 47
CCSSCS(C)(=O)=O | 34.6 to 36.3
CCCCCCOCCOc1ccc(-c2ccc3c(c2)C=C(C(=O)Nc2ccc(CN(C)C4CCOCC4)cc2)CCS3(=O)=O)cc1 | 180 to 182
CCCCCCCCCCCCn1nnc(NC(=O)CS(=O)(=O)Nc2c(C(C)C)cccc2C(C)C)n1 | 138 to 140

Second part, the molecule after the results:

melting point [°C] | Structure (SMILES)
270 to 271 | CN1CCN2C(=O)Nc3ccc(Cl)cc3C12c1ccccc1 (stereo not given)
259 to 261 | Cc1c(OCC(=O)O)ccc2c(=O)c3c(F)cccc3oc12
98 to 100 | COC(C)c1ccc(OCCCN2CCC(c3noc4cc(F)ccc34)CC2)c(O)c1 (stereo not given)
205 to 206 | N#Cc1cc(C(=O)NN2CCOCC2)ccc1OCC(=O)O
178 to 181 | CCOCc1nc2c(N)nc3ccccc3c2n1NCCCNC(C)=O
79 to 81 | Nc1cc(C(=O)OCc2ccccc2)ccc1OCc1ccccc1
132 to 134 | Cc1c(C)c(-c2cccc(CO)c2)c(C)c(C)c1OCCCS(C)(=O)=O
128 to 133 | C[C@H](NC(=O)Cc1cc(F)cc(F)c1)C(=O)N[C@@H]1C(=O)NCCS[C@@H]1c1ccccc1
115 | CCC(CC)CNC(=O)c1ccc2c(c1)N(C(C)CN1CCCC1)c1ccccc1S2 (racemic)
281 to 283 | COc1ccc2ncc([N+](=O)[O-])c(Cl)c2c1
178 to 179 | COC(=O)CN(c1cc2cc(OC)c(=O)oc2cc1OCc1ccccc1)S(N)(=O)=O
41 | O=C(Nc1ccccc1SCc1ncon1)OCc1ccccc1
81 | CC(=O)N1c2ccccc2[C@@]2(C)Cc3ccccc3[C@@]12C (relative stereo)
271 | COc1cccc(C(=O)Nc2nnn[nH]2)c1[N+](=O)[O-]
94 | CS(=O)(=O)OCCc1ccc(N2CCCC2=O)cc1
80 to 83 | CN(C)c1ccc(NC(=O)N(CCC2=CCCCC2)C[C@H]2CCC[C@H](CN(CCC3=CCCCC3)C(=O)Nc3ccc(N(C)C)cc3)C2)cc1 (relative stereo)
174 to 175 | CCCc1nccn1-c1nc(-c2ccc(Cl)cc2)c(CCC(=O)O)o1
78.5 to 80 | O=S(=O)(c1ccccc1)N1CCCCC1CSc1ccc(Cl)cc1 (stereo not given)
189 to 191 | CCOc1cc2cc(C(=O)N3CC(CCl)c4c3cc(N3C(=O)c5ccccc5C3=O)c3ncccc43)[nH]c2c(OCC)c1OCC (stereo not given)
153 to 154 | COc1c(F)c(F)c(-c2c3ccccc3c(-c3ccccc3)c3ccccc23)c(F)c1F
150 to 152 | COc1ccc(Br)c(C(=O)NNS(=O)(=O)c2ccccc2)c1

melting point [°C] | Structure (SMILES)
182 to 183 | N#Cc1ccccc1Cn1cc(-c2ccnc(N)c2)n(-c2ccc(F)cc2)c1=O
236 to 237 | O=C(CCl)n1ccc2cc(F)ccc21
190 to 191 | COCc1cnc2c(NC(=O)c3c(Cl)cccc3Cl)cccc2c1Cn1ccnc1
259 to 261 | O=C(O)COc1c(Br)cc(-c2c3ccccc3c(Br)c3sc4ccccc4c23)cc1Br
195 | CCNC(=O)c1ccc(-c2cnc3c(c2)N(Cc2ccccc2)C(=O)CN3)cc1
> 300 | O=C1NC(=S)SC1=Cc1ccc2c(c1)N(OCc1ccc(C(F)(F)F)cc1)C(=O)CO2
167 to 168 | CS(=O)(=O)c1ccc(-c2nn3c(c2-c2ccc(F)cc2)OCCCC3)cc1
285 to 287 | O=C(O)c1cc(Cl)c2cccnc2c1O
144 to 145 | CCc1nc(C(=O)O)c(Cl)c(N)c1F
124 to 125 | COc1nc(Cl)n2nc(SCc3ccccc3)nc2c1Br
179 to 181 | Cc1cccc(COc2cccnc2NC(=N)Nc2ccc(Cl)cc2)c1F
176 to 180 | Cc1c(CO)ncn1Cc1ccccc1
142 to 144 | COC(=O)Nc1ccc(OCc2nc3ccccc3s2)cc1
195 | CN1CCN(c2cccc(Nc3ncc4ccc(-c5cn[nH]c5)n4n3)c2)CC1
48 to 48.5 | CC(=O)Oc1cc(CCc2ccccc2)cc(OC(C)=O)c1
222 to 224 | O=c1c(Cc2ccncc2)c(-c2ccccc2)[nH]c2ccccc12
51 | CCCCCCCC(=O)Oc1ccc(C(=O)O)cc1
187 to 188 | Nc1c2c(nc3c(O)cccc13)CCC2
256 to 257 | O=C1NCCN1c1ccc(S(=O)(=O)Nc2ccc(C3CCCCC3)cc2)cc1
91.2 | CCOCCn1c(CN2CCN(Cc3ccccc3)CC2C)nc2cccnc21 (stereo not given)
262 | O=C1NC(=O)C(c2ccc(O)cc2)N1 (stereo not given)

melting point [°C] | Structure (SMILES)
43 to 46 | CC1CCN(C(=O)Oc2ccc(Oc3ccccc3)cc2F)CC1
164 to 169 | CCCCC(=N)NC(=O)Nc1ccc(Cl)cc1
208 to 210 | CC(C)(C)OC(=O)N1CCn2c(-c3ccccc3)cc(C(N)=O)c2C1
227 to 229 | CC(=O)Nc1ccc(-c2nc3ccccc3s2)cc1
88 to 90 | COc1ccc(C(Cc2ccccc2)C2=C(C)N=NC2=O)cc1OC1CCCC1 (stereo not given)
84.5 to 85 | CCOC(=O)/C=C/c1ccc(OC(C)C)cc1Oc1ncc(C(F)(F)F)cc1Cl
205 to 208 | C[C@@H]1S[C@@H](C(=O)Nc2ccc(CN3C(=O)CCCC3=O)cc2)Cc2cc3c(cc2C1=O)OCO3
226 | O=C(N[C@H]1CC[C@H](CCN2CCN(c3nccc4c3CCO4)CC2)CC1)c1ccc(Cl)cc1
233 to 236 | O=C(O)C1=COc2c(C(=O)c3cccs3)cc(Cl)c(Cl)c2O1
190 to 202 | O=C(O)CCc1c[nH]c2c(C(=O)c3ccc(Cl)cc3)cccc12
263 to 265 | CCc1ccc2nc(N)nc(Nc3ccccc3C)c2c1
232 | S=c1cc(-c2nc[nH]n2)oc2ccccc12
185 to 187 | CCN(C)C(=O)c1cnn(-c2cccc(C#N)c2)c1C#N
65 | O=C(Nn1ccc2ccccc21)C1=CCCN(CCN2CCCCC2)C1
97.1 to 101 | COc1ccccc1-c1cccc(-n2cnc(-c3nc(C)no3)c2)c1
178 to 182 | CC(C)[C@H](NC(=O)OCc1ccccc1)C(=O)N[C@@H](Cc1ccccc1)[C@@H](O)[C@@H](O)[C@H](Cc1ccccc1)NC(=O)OC(C)(C)C
126 to 129 | CC(C)n1nc(-c2sc(NC(=O)c3ccccc3)nc2-c2ccccc2)ccc1=O
116 to 117 | O=C(O)COc1ccc(OCCCCc2ccccc2)cc1
100 to 101 | CCOC(=O)c1c2ccc(Cl)cc2c(-c2ccccc2)n1CCCC(C)C1OCCO1 (stereo not given)
63.5 to 66 | O=C(Oc1ccc(F)cc1)c1cccc(F)c1
228 to 230 | CCc1nc(N)nc(N)c1-c1cccc(Cl)c1Cl
